Measurements: US12215354B2, “Differentiation of human embryonic stem cells into single hormonal insulin positive cells” (Janssen Biotech, Inc., priority 2011, dated 2025)

Test system: human embryonic stem cell line H1
Assay: Immune staining for insulin, glucagon and somatostatin hormones at end of stage 5 (Example 13)
Type: cell-based
Conditions: percentage of the entire hormone count at S5 day 3
Procedure: Cells of the human embryonic stem cell line H1 at various passages (passage 40 to passage 52) were seeded as single cells at a density of 100,000 cells/cm^2 on MATRIGEL™ (1:30 dilution) coated dishes in mTesr™1 media and 10 μM of Y27632. Forty eight hours post seeding, cultures were differentiated into pancreatic endocrine lineage as follows: • a. Stage 1 (Definitive Endoderm (DE)−3 days): Prior to start of DE, the cultures were washed and incubated with incomplete PBS (no Mg or Ca) for 30 seconds followed by addition of the stage 1 media. Human embryonic stem cells cultured as single cells on MATRIGEL™-coated dishes were treated with MCDB-131 medium supplemented with 0.1% fatty acid-free BSA, 0.0012 g/ml sodium bicarbonate, 1× GLUTAMAX™, 5 mM D-Glucose, 100 ng/ml GDF8, 1 μM MCX compound (GSK3B inhibitor) for one day. Cells were then treated with MCDB-131 medium supplemented with 0.1% fatty acid-free BSA, sodium bicarbonate, GLUTAMAX™, extra 5 mM glucose, 100 ng/ml GDF8, and 100 nM MCX compound for day two followed by an additional day in MCDB-131 medium supplemented with 0.1% fatty acid-free BSA, 0.0012 g/ml sodium bicarbonate, 1× GLUTAMAX™, 5 mM Glucose, and 100 ng/ml GDF8. • b. Stage 2 (Primitive gut tube−2 days): Cells were treated with MCDB-131 medium supplemented with 0.1% fatty acid-free BSA, 0.0012 g/ml sodium bicarbonate, 1× GLUTAMAX™, 5 mM D-Glucose, 0.25 mM ascorbic acid, and 25 ng/ml FGF7 and for two days, then • MCDB131supplemented with 1:200 dilution of ITS-X, 2.5 mM Glucose, 1× GLUTAMAX™, 0.0015 g/ml sodium bicarbonate, 2% fatty acid-free BSA, 10 ng/ml Activin A, 25 ng/ml FGF7, 0.25 mM ascorbic acid, 0.25 μM SANT-1, 1 μM RA, 200 nM TPB, 100 nM LDN-193189 for day 1, followed by treatment with tMCDB131supplemented with 1:200 dilution of ITS-X, 2.5 mM Glucose, 1× GLUTAMAX™, 0.0015 g/ml sodium bicarbonate, 2% fatty acid-free BSA, 10 ng/ml Activin A, 25 ng/ml FGF7, 0.25 mM ascorbic acid, 0.25 μMSANT-1, 1 μM RA, 200 nM TPB, 10 nM LDN-193189 for an additional day. • d. […]

Structure (SMILES): O=C1O[C@H]([C@@H](O)CO)C(O)=C1O [ascorbic acid]
- % Polyhormonal (treatment at S5): 44%
- % glucagon + plus % somatostatin+ (treatment at S5): 44%
- % single hormonal Insulin+ (treatment at S5 (0.1 mM ascorbic acid, 50 nM RA, 0.25 μM SANT-1, 1 μM Alk5 inh)): 12%
